From US11612634B2 (priority 2020, dated 2023)

Tests used:
[1] = tested on: Carr-induced inflammatory pain rat model; experiment: Analgesic effect on mechanical hyperalgesia (PWT) in Carr-induced inflammatory pain rat model; assay type: in vivo
Method: The mechanical hyperalgesia of rats was measured by 38500-pressure application measurement (PAM) system (Ugo Basile Biological Research Apparatus, Comerio-Varese, Italy), which consisted of a hand-held part and an integrated electronic part. The hand-held part was a force sensor which was designed according to a Randall-Selitto algesimeter. The integrated electronic part was configured to automatically record a maximum PWT applied to the left hind paw of the rats.
The Carr-induced inflammatory pain model was built according to a published method (Alessandri-Haber N, et al. Neurosci. Vol 29(19), pp. 6217-6288, 2009) for evaluating an analgesic effect of drugs administered by intraplantar injection. […] Those rats with a PWT lower than 100 gf were considered to be a desired Carr-induced inflammatory pain model, those rats with the PWT higher than 100 gf was removed.
(S1) A total of 18 healthy adult SD rats, weighing 180-220 g, were selected, numbered on tails and placed in the same cage.
(S2) The rats were maintained in a measuring room for 2 h for adaptation.
The measurement was repeated 3-5 times for each rat with an interval of 5-10 min. The results of multiple PWT measurements were averaged as the Baseline (BL) (unit: g). After that, 6 μL of 1 wt % Carr was intradermally injected into the plantar surface of the hind paw to build an inflammatory pain rat model.
(S4) The PWT of the left hind paw of each rat was measured 1 h after the Carr injection. Rats with a higher inflammatory threshold and rats with a lower inflammatory threshold were mixed and equally divided into three groups (group A, group B and group C), each for six rats, such that any two groups of rats had similar distribution of inflammatory threshold. The groups A, B and C were intradermally injected with normal saline, 5 mg/kg of morphine and 2 μg/kg of the short peptide P10581, respectively, at the plantar surface of the left hind paw. 1 h later, the PWT of the left hind paw of the rats in each group was measured 3-5 times at an interval of 5-10 min. The multiple PWT measurement results were averaged as the practical PWT (unit: g). Then the drug was injected every 2 h according to the above-mentioned administration dose and time, and the corresponding PWT was recorded (six injections in total).
(1) 24 healthy adult SD rats, weighing 180-220 g, were selected, reinjected with 6 μL of a 1 wt % Carr solution and divided into 4 groups randomly and averagely (i.e., groups A-D). The group A was injected with normal saline; the group B was intradermally injected with 0.1 μg/kg of the short peptide P10581 through the plantar surface of the left hind paw; the group C was intradermally injected with 0.1 μg/kg of the short peptide P10581 and then with 5 mg/kg of morphine 30 min later through the plantar surface of the left hind paw; and the group D was intradermally injected with 0.05 μg/kg of the short peptide P10581, and then with 5 mg/kg of morphine 30 min later through the plantar surface of the left hind paw. 1 h later, the PWT of each group was recorded when the mechanical withdrawal of the left hind paw occurred, and each rat was measured 3-5 times at an interval of 5-10 min.
(2) The drug was injected every 2 h according to the above-mentioned administration dose and time (seven times in total), and the PWT was recorded.
(S1) A total of 20 healthy adult SD rats (half male and half female), weighing 180-220 g, were selected, numbered on tails and transferred to the same cage.
(S4) The PWT of the left hind paw of each rat was measured 1 h after the Carr injection.

[2] = tested on: CCI-induced neuropathic pain rat model; experiment: Analgesic effect on mechanical hyperalgesia (PWT) in CCI-induced neuropathic pain rat model; assay type: in vivo
Method: The chronic constriction nerve injury (CCI)-induced neuropathic pain rat model was built according to a published method (Bennett G J, et al. Pain, 1988). The experimental rats were anesthetized by intraperitoneal injection of 10 wt % chloral hydrate (300 mg/kg), and then placed on a super-clean bench, and the operation area was disinfected with iodophor.
The ligation tightness should be adjusted to cause slight twitching of a leg on an operated side of the rat without affecting the blood circulation of the epineurium. The wound was sutured layeredly and wiped with iodophor according to the postoperative situation. The rats were transferred back into a cage for rest upon fully recovering. The PWT was measured 5 days after modeling, where those with a significant lower PWT were considered as successful neuropathic pain rat models, and the undesirable rats were excluded.
(S1) A total of 15 healthy adult SD rats, weighing 180-220 g, were selected, numbered on tails and placed in the same cage.
(S2) The rats were raised in a measuring room for 2 h for adaptation.
The measurement was repeated 3-5 times for each rat at an interval of 5-10 min, and the results were averaged. Then the rats were allowed to rest for several hours and then adopted to build a CCI-induced neuropathic pain model.
(S4) The PWT was measured on the morning of the 3rd day and the 6th day after the modeling, and those unsuccessful models were removed. And on the 6th after the modeling, the successful rat models were randomly divided into 3 groups, where the group A was injected with normal saline; the group B was injected with 5 mg/kg of morphine; and the group C was intradermally injected with 8 μg/kg of the short peptide P10581 into the left hind paw. 1 h later, the PWT of each group was recorded when the left hind paw generated mechanical withdrawal. Each of the rats was measured 3-5 times at an interval of 5-10 min, and the PWTs were averaged as the actual PWT (unit: g). The drug injection was fixedly performed at 9:00 a.m. and 5:30 p.m. from the 6th day to the 14th day after modeling, and the PWT of each group was measured before and after administration every other day. On the 15th day after modeling, the group B was injected with 8 μg/kg of the short peptide P10581 and the group C was injected with 5 mg/kg of the morphine, and the PWT of the group B and group C was recorded when the mechanical withdrawal occurred to the left hind paw.
(1) 30 healthy adult SD rats, weighing 180-220 g, were selected to build a CCI-induced neuropathic pain model. On the 8th day after the modeling, successfully-established models were randomly divided into 6 groups, where the group A was injected with 0.45 μg/kg of the short peptide P10581; the group B was injected with 0.9 μg/kg of the short peptide P10581; the group C was injected with 1.8 μg/kg of the short peptide P10581; the group D was injected with 3.6 μg/kg of the short peptide P10581; the group E was injected with 7.2 μg/kg of the short peptide P10581; and the group F was injected with 8.5 μg/kg of the short peptide P10581. The PWT of each group was measured 1.5 h later.
(2) Each group was injected with 7.2 μg/kg of the short peptide P10581 at 5:30 p.m. on the 8th day after modeling, and then continuously injected from the 9th day to the 16th day 16 (injected with 7.2 μg/kg of the short peptide P10581 at 9:00 a.m. and 5:30 p.m. a day). The PWT of rats before and after administration in the morning was measured every other day.
(3) On the 17th day after modeling, the six groups were injected with different doses of the short peptide P10581, respectively, according to step (1). 1.5 h later, the PWT of each group was measured to evaluate the effect of dose.
(1) 15 healthy adult SD rats, weighing 180-220 g, were selected to build a CCI-induced neuropathic pain model.

[3] = 2 μg/kg i.d. plantar, every 2 h, six injections
[4] = 8 μg/kg i.d., twice a day, repeated

| Molecule | analgesic effect on hyperalgesia, low dose ([1]; 0.1 μg/kg i.d., every 2 h, seven injections) | duration of analgesic effect ([1]; 2 μg/kg i.d. plantar, every 2 h) | analgesic effect on Carr-induced inflammatory pain threshold (PWT) [1, 3] | analgesic tolerance after repeated injection [1, 3] | analgesic effect on neuropathic pain threshold, low dose ([2]; 0.1 μg/kg i.d., twice a day) | IC50 before vs after repeated administration ([2]; 7.2 μg/kg i.d. repeated (FIG. 8D)) | change of PWT after repeated high-dose administration ([2]; 7.2 μg/kg i.d., twice a day, 9 days, test doses 0.45-8.5 μg/kg) | analgesic effect in morphine-tolerant rats ([2]; 8 μg/kg i.d. on day 10 after repeated morphine 5 mg/kg) | analgesic effect on neuropathic pain [2, 4] | analgesic tolerance after repeated injection [2, 4] | administration dose at which analgesic effect reached the peak ([2]; neuropathic pain, i.d.) | analgesic effect / tolerance after repeated injection ([1]; rat, in vivo) | analgesic effect / tolerance after repeated injection ([2]; rat, in vivo) | analgesic effect of morphine after repeated P10581 ([2]; rat, in vivo) |
| --- | --- | --- | --- | --- | --- | --- | --- | --- | --- | --- | --- | --- | --- | --- |
| WKCNPNDDKCCRPKLKC [P10581] | no relieving effect on the hyperalgesia in rats | more than 12 h | completely reverse the Carr-induced inflammatory pain threshold | without developing the analgesic tolerance | no effect on the threshold of neuropathic pain in rats | did not bring significant difference to the IC50 | no obvious change occurred to the PWT | neuropathic pain threshold of rats can be reversed | neuropathic pain was alleviated | no analgesic tolerance occurred | 7.2 µg/kg |  |  |  |
| CN1CC[C@]23c4c5ccc(O)c4O[C@H]2[C@@H](O)C=C[C@H]3[C@H]1C5 [morphine, reference compound] |  |  |  |  |  |  |  |  |  |  |  | gradually declined analgesic effect with the increase in the number of injections | eventually lost the analgesic effect | the same analgesic effect was still kept |
